Source: US20240150377A1, “MODULATORS OF CYSTIC FIBROSIS TRANSMEMBRANE CONDUCTANCE REGULATOR” (VERTEX PHARMACEUTICALS INCORPORATED, priority 2020, published 2024)

Target: T1, CFTR (Homo sapiens, UniProt P13569, DEL508-508)
T1 construct: endogenous in cells; host or cells: primary human bronchial epithelial cells from CF subjects (F508del/MF-HBE), differentiated at air-liquid interface
Assay: HBE2 assay: Ussing chamber assay of CFTR-mediated short-circuit currents
Type: cell-based
Conditions: F508del/MF-HBE cells, 18-24 hours, 20% human serum; for HBE2 Activity at 3 μM (%): 3 μM corrector; for HBE2 Activity at 3 μM (%) / Emax: with 44 nM potentiator; for EC50: corrector at a range of concentrations with 44 nM potentiator; for Emax: read-out: HBE2 Max activity (%)
Method in brief: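 F508del/MF-HBE cultured >14 days at air-liquid interface, mounted in Ussing chambers; transepithelial short-circuit current recorded under voltage clamp (Vhold=0 mV) at 37 °C. CFTR-mediated ISC (μA/cm^2) taken as peak forskolin response relative to steady-state current after inhibition; corrector activity assessed this way.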

T1 sequence (P13569 with tags, fused parts or gaps DEL508-508): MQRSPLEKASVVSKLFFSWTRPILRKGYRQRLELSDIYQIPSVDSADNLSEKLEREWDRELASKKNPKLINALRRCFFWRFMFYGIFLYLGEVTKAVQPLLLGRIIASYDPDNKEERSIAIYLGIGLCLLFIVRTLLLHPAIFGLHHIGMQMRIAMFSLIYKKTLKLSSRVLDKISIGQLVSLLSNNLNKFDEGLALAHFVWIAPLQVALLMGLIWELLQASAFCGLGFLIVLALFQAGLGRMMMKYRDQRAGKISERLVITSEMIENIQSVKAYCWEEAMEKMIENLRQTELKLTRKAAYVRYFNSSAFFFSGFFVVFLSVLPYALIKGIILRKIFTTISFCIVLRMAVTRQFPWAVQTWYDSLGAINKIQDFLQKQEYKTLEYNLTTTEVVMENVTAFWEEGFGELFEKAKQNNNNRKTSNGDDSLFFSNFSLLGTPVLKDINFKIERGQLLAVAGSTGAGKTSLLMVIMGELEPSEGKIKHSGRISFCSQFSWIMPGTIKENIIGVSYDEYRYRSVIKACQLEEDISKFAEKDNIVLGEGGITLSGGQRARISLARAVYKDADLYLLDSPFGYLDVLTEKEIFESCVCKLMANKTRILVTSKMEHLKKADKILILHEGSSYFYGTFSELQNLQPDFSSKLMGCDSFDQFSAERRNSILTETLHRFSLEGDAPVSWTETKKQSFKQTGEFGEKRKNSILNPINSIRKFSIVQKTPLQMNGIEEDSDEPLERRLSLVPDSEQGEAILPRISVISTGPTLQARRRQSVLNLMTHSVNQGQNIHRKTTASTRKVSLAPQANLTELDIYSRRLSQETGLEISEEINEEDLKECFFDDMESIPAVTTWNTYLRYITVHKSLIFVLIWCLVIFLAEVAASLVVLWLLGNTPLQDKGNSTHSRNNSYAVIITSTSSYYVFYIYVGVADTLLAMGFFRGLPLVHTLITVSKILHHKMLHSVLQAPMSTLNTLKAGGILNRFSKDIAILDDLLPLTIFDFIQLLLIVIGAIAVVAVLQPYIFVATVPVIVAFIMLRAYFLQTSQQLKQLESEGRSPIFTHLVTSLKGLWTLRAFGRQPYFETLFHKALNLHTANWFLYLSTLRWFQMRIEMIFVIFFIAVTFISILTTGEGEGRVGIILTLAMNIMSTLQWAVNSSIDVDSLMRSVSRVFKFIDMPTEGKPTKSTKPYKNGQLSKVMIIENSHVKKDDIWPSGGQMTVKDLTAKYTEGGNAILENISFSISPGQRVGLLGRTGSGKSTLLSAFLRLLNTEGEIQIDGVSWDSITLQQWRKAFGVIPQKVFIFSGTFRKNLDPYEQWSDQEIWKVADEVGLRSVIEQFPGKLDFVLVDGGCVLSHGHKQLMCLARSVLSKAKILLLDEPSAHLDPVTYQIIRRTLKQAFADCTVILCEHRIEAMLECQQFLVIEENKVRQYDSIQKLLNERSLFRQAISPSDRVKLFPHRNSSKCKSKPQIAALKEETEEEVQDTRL

Structure (SMILES)	HBE2 Activity at 3 μM (%)	EC50	Emax
Cc1cccc(C)c1-c1cc2nc(n1)NS(=O)(=O)c1cccc(c1)C(=O)N(Cc1cncc(N(C)CC(C)(C)C)n1)[C@H](CCC1CC1)CO2 [Compound 1719]	+++ (+++ is >60+)	< 1000 nM	> 60%
Cc1cccc(C)c1-c1cc2nc(n1)NS(=O)(=O)c1cccc(c1)C(=O)N(Cc1cncc(N3CCC[C@H]3C(C)C)n1)[C@H](CCC1CC1)CO2 [Compound 1720]	+++ (+++ is >60+)	< 1000 nM	> 60%
CC[C@@H]1CCN1c1cncc(CN2C(=O)c3cccc(c3)S(=O)(=O)Nc3nc(cc(-c4c(C)cccc4C)n3)OC[C@H]2CC(C)(C)C)n1 [Compound 1721]	+++ (+++ is >60+)		
Cc1cccc(C)c1-c1cc2nc(n1)NS(=O)(=O)c1cccc(c1)C(=O)N(Cc1cncc(N3CCCC[C@H]3C)n1)[C@H](CCC(C)(C)C)CO2 [Compound 1725]	+++ (+++ is >60+)	< 1000 nM	> 60%
Cc1cccc(C)c1-c1cc2nc(n1)NS(=O)(=O)c1cccc(c1)C(=O)N(Cc1cncc(N3CC[C@H]3C)n1)[C@H](CCC(C)(C)C)CO2 [Compound 1726]	+++ (+++ is >60+)	< 1000 nM	> 60%
CCC(C)CN(C)c1cncc(CN2C(=O)c3cccc(c3)S(=O)(=O)Nc3nc(cc(-c4c(C)cccc4C)n3)OC[C@H]2CC(C)(C)C)n1 (stereo partly shown) [Compound 1727]	+++ (+++ is >60+)		
Cc1cccc(C)c1-c1cc2nc(n1)NS(=O)(=O)c1cccc(c1)C(=O)N(Cc1cncc(N3[C@H](C)C[C@@H]3C)n1)[C@H](CC(C)(C)C)CO2 [Compound 1728]	+++ (+++ is >60+)		
Cc1cc(C)c(-c2cc3nc(n2)NS(=O)(=O)c2cccc(c2)C(=O)N(Cc2cncc(N(C)C4CCC4)n2)[C@H](CC(C)(C)C)CO3)c(C)c1 [Compound 1729]	+++ (+++ is >60+)		
COC[C@@H]1CCN1c1cncc(CN2C(=O)c3cccc(c3)S(=O)(=O)Nc3nc(cc(-c4c(C)cccc4C)n3)OC[C@H]2CCC(C)(C)C)n1 [Compound 1730]	+++ (+++ is >60+)	< 1000 nM	> 60%
Cc1cccc(C)c1-c1cc2nc(n1)NS(=O)(=O)c1cccc(c1)C(=O)N(Cc1cncc(N(C)C3CCC3)n1)[C@H](c1ccccc1)CO2 [Compound 1731]	+++ (+++ is >60+)		
Cc1cccc(C)c1-c1cc2nc(n1)NS(=O)(=O)c1cccc(c1)C(=O)N(Cc1cncc(N(C)C3CCC3)n1)[C@H](C(C)(C)C)CO2 [Compound 1732]	+++ (+++ is >60+)		
Cc1cccc(C)c1-c1cc2nc(n1)NS(=O)(=O)c1cccc(c1)C(=O)N(Cc1cncc(N(C)C3CCC3)n1)[C@H](C1CCCCC1)CO2 [Compound 1733]	+++ (+++ is >60+)	< 1000 nM	> 60%
Cc1cccc(C)c1-c1cc2nc(n1)NS(=O)(=O)c1cccc(c1)C(=O)N(Cc1nccc(N(C)C(C)C)n1)[C@H](CCC(C)C)CO2 [Compound 1734]	+++ (+++ is >60+)		
Cc1cccc(C)c1-c1cc2nc(n1)NS(=O)(=O)c1cccc(c1)C(=O)N(Cc1cncc(N(C)CC(C)(C)C)n1)[C@H](CCC(C)(C)C)CO2 [Compound 1739]	+++ (+++ is >60+)		
Cc1cccc(C)c1-c1cc2nc(n1)NS(=O)(=O)c1cccc(c1)C(=O)N(Cc1cncc(N(C)C3CCC3)n1)[C@@H]1CN(CCC(C)(C)C)C[C@H]1O2 [Compound 1741]	++ (++ is 30-60%)		
Cc1cccc(C)c1-c1cc2nc(n1)NS(=O)(=O)c1cccc(c1)C(=O)N(Cc1cncc(N(C)C3CCC3)n1)[C@@H]1CN(C3CC4(CC4)C3)C[C@H]1O2 [Compound 1742]	+++ (+++ is >60+)		
Cc1cccc(C)c1-c1cc2nc(n1)NS(=O)(=O)c1cccc(c1)C(=O)N(Cc1cncc(N3CCC[C@H]3C)n1)[C@H](CC1(C)CCC1)CO2 [Compound 1743]	+++ (+++ is >60+)		
Cc1cccc(C)c1-c1cc2nc(n1)NS(=O)(=O)c1cccc(c1)C(=O)N(Cc1cncc(N3CCCC[C@H]3C)n1)[C@H](CC1(C)CCC1)CO2 [Compound 1744]	+++ (+++ is >60+)		
Cc1cccc(C)c1-c1cc2nc(n1)NS(=O)(=O)c1cccc(c1)C(=O)N(Cc1cncc(N(C)C(C)C)n1)[C@H](CC1(C)CCC1)CO2 [Compound 1745]	+++ (+++ is >60+)		
Cc1cccc(C)c1-c1cc2nc(n1)NS(=O)(=O)c1cccc(c1)C(=O)N(Cc1cncc(N3CCC[C@@H]4CC[C@@H]43)n1)[C@H](CCC(C)C)CO2 [Compound 1747]	+++ (+++ is >60+)		
Cc1cccc(C)c1-c1cc2nc(n1)NS(=O)(=O)c1cccc(c1)C(=O)N(Cc1cncc(N3CCCC[C@H]3C)n1)[C@H](CCC(C)C)CO2 [Compound 1749]	+++ (+++ is >60+)		
Cc1cccc(C)c1-c1cc2nc(n1)NS(=O)(=O)c1cccc(c1)C(=O)N(Cc1cncc(N3CC(C)(C)[C@H]3C(C)C)n1)[C@H](CC(C)(C)C)CO2 [Compound 1750]	+++ (+++ is >60+)		

Structure (SMILES)	HBE2 Activity at 3 μM (%)	EC50	Emax
Cc1cccc(C)c1-c1cc2nc(n1)NS(=O)(=O)c1cccc(c1)C(=O)N(Cc1cncc(N3CC4(CCC4)[C@H]3C(C)C)n1)[C@H](CC(C)(C)C)CO2 [Compound 1752]	+++ (+++ is >60+)		
CCC(CC)N(C)c1cncc(CN2C(=O)c3cccc(c3)S(=O)(=O)Nc3nc(cc(-c4c(C)cccc4C)n3)OC[C@H]2CC(C)(C)C)n1 [Compound 1754]	+++ (+++ is >60+)		
Cc1cccc(C)c1-c1cc2nc(n1)NS(=O)(=O)c1cccc(c1)C(=O)N(Cc1cnc3ccn(CC(C)C)c3n1)[C@H](CC(C)(C)C)CO2 [Compound 1755]	+++ (+++ is >60+)		
Cc1cccc(C)c1-c1cc2nc(n1)NS(=O)(=O)c1cccc(c1)C(=O)N(Cc1cnc3cc(C(C)C)n(C)c3n1)[C@H](CC(C)(C)C)CO2 [Compound 1756]	+++ (+++ is >60+)		
Cc1cccc(C)c1-c1cc2nc(n1)NS(=O)(=O)c1cccc(c1)C(=O)N(Cc1cncc(N(C)CC3(C)CC3)n1)[C@H](CC(C)(C)C)CO2 [Compound 1757]	+++ (+++ is >60+)		
COC1(CN(C)c2cncc(CN3C(=O)c4cccc(c4)S(=O)(=O)Nc4nc(cc(-c5c(C)cccc5C)n4)OC[C@H]3CC(C)(C)C)n2)CCC1 [Compound 1758]	+++ (+++ is >60+)		
Cc1cccc(C)c1-c1cc2nc(n1)NS(=O)(=O)c1cccc(c1)C(=O)N(Cc1cncc(N(C)CC(C)(C)F)n1)[C@H](CC(C)(C)C)CO2 [Compound 1759]	+++ (+++ is >60+)		
Cc1cccc(C)c1-c1cc2nc(n1)NS(=O)(=O)c1cccc(c1)C(=O)N(Cc1cncc(N3CCO[C@@H](C)[C@H]3C)n1)[C@H](CC(C)(C)C)CO2 [Compound 1761]	+++ (+++ is >60+)		
Cc1cccc(C)c1-c1cc2nc(n1)NS(=O)(=O)c1cccc(c1)C(=O)N(Cc1cccc(N(C)C(C)C)n1)[C@H](CC1(C)CCC1)CO2 [Compound 1762]	+++ (+++ is >60+)		
Cc1cccc(C)c1-c1cc2nc(n1)NS(=O)(=O)c1cccc(c1)C(=O)N(Cc1cncc(N(C)CC(C)C)n1)[C@H](CCC(C)C)CO2 [Compound 1763]	+++ (+++ is >60+)		
CCN(c1cncc(CN2C(=O)c3cccc(c3)S(=O)(=O)Nc3nc(cc(-c4c(C)cccc4C)n3)OC[C@H]2CCC(C)C)n1)C1CCC1 [Compound 1764]	+++ (+++ is >60+)		
Cc1cccc(C)c1-c1cc2nc(n1)NS(=O)(=O)c1cccc(c1)C(=O)N(Cc1cncc(N(C)C3CCC3)n1)[C@@H]1CCN(CCC(C)(C)C)C[C@H]1O2 [Compound 1766]	+++ (+++ is >60+)		
Cc1cccc(C)c1-c1cc2nc(n1)NS(=O)(=O)c1cccc(c1)C(=O)N(Cc1cncc(N(C)C3CCC3)n1)[C@@H]1CCN(C3CC4(CC4)C3)C[C@H]1O2 [Compound 1767]	+++ (+++ is >60+)		
Cc1cccc(C)c1-c1cc2nc(n1)NS(=O)(=O)c1cccc(c1)C(=O)N(Cc1cncc(N(C)C3CCC3)n1)[C@@H]1CCN(C3CC4(CCCC4)C3)C[C@H]1O2 [Compound 1768]	+++ (+++ is >60+)		
Cc1cccc(C)c1-c1cc2nc(n1)NS(=O)(=O)c1cccc(c1)C(=O)N(Cc1cncc(N3CC(F)(F)[C@H]3C)n1)[C@H](CC(C)(C)C)CO2 [Compound 1769]	+++ (+++ is >60+)		
Cc1cccc(C)c1-c1cc2nc(n1)NS(=O)(=O)c1cccc(c1)C(=O)N(Cc1cncc(N(C)C3CCC3)n1)[C@H](CC(C)C)CCO2 [Compound 1770]	+++ (+++ is >60+)		
Cc1cccc(C)c1-c1cc2nc(n1)NS(=O)(=O)c1cccc(c1)C(=O)N(Cc1cncc(N(C)C(C)C)n1)[C@H](CCC(C)C)CO2 [Compound 1771]	+++ (+++ is >60+)		
Cc1cccc(C)c1-c1cc2nc(n1)NS(=O)(=O)c1cccc(c1)C(=O)N(Cc1cncc(N(C)CC(C)C)n1)[C@H](CC1(C)CCC1)CO2 [Compound 1774]	+++ (+++ is >60+)		
Cc1cccc(C)c1-c1cc2nc(n1)NS(=O)(=O)c1cccc(c1)C(=O)N(Cc1cncc(N3CCC[C@H]3C(C)C)n1)[C@H](CC1(C)CCC1)CO2 [Compound 1775]	+++ (+++ is >60+)		
Cc1cccc(C)c1-c1cc2nc(n1)NS(=O)(=O)c1cccc(c1)C(=O)N(Cc1cccc(N3CCC[C@H]3C(C)C)n1)[C@H](CC1(C)CCC1)CO2 [Compound 1776]	+++ (+++ is >60+)		
Cc1cccc(C)c1-c1cc2nc(n1)NS(=O)(=O)c1cccc(c1)C(=O)N(Cc1cccc(N3CCC[C@H]3C)n1)[C@H](CC1(C)CCC1)CO2 [Compound 1777]	+++ (+++ is >60+)		
